This note sets out measurements from ChEMBL document CHEMBL1153537, “Structure-activity relationship and molecular mechanisms of ethyl 2-amino-4-(2-ethoxy-2-oxoethyl)-6-phenyl-4h-chromene-3-carboxylate (sha 14-1) and its analogues” (J Med Chem, 2009).

Converted amounts (≈) assume the structure as drawn. The source made the active and inactive calls. The calls are words filed in the database; no cut-off is given here.

One experiment has as its system Jurkat. The experiment can be described thus: Cytotoxicity against human Jurkat cells after 48 hrs by cell titer-blue assay. The class given is functional, cell-based.
Experiment [1] can be described thus: Cytotoxicity against human CCRF-CEM/C2 cells after 48 hrs by cell titer-blue assay. The class given is functional, cell-based.
Experiment [2] relates to HL-60. The experiment in a line: Cytotoxicity against human HL60 cells after 48 hrs by cell titer-blue assay. The class given is functional, cell-based. Conditions: HL-60, 48 h.
Experiment [3] in a line: Cytotoxicity against human HL60/MX2 cells after 48 hrs by cell titer-blue assay. The class given is functional, cell-based. Particulars: HL60/MX2, 48 h.
Experiment [4] has as its system CCRF-CEM. The experiment in a line: Cytotoxicity against human CCRF-CEM cells after 48 hrs by cell titer-blue assay. The class given is functional, cell-based.
Experiment [5] relates to CCRF-CEM. The experiment in a line: Ratio of GI50 for human CCRF-CEM/C2 cells to GI50 for human CCRF-CEM cells. The class given is functional.
In another experiment the test system is HCT-116. The experiment in a line: Cytotoxicity against human HCT116 cells after 48 hrs by cell titer-blue assay. The class given is functional, cell-based. Particulars: HCT-116, 48 h.
Another experiment deals with REH. The experiment can be described thus: Cytotoxicity against human REH cells after 48 hrs by cell titer-blue assay. The class given is functional, cell-based.
The subject of the next experiment is NCI-H460. The experiment in a line: Cytotoxicity against human H460 cells after 48 hrs by cell titer-blue assay. The class given is functional, cell-based. Conditions: NCI-H460, 48 h.
The next experiment concerns MCF7. The experiment in a line: Cytotoxicity against human MCF7 cells after 48 hrs by cell titer-blue assay. The class given is functional, cell-based. Particulars: MCF7, 48 h.
A further experiment has as its system DU-145. The experiment in a line: Cytotoxicity against human DU145 cells after 48 hrs by cell titer-blue assay. The class given is functional, cell-based. Conditions: DU-145, 48 h.
Experiment [6] can be described thus: Cytotoxicity against mouse Hepa-1c1c7 cells after 48 hrs by cell titer-blue assay. The class given is functional, cell-based. Conditions: Hepa-1c1c7, 48 h.
Experiment [7] has as its system NALM-6. The experiment can be described thus: Cytotoxicity against human NALM6 cells after 48 hrs by cell titer-blue assay. The class given is functional, cell-based.
The nature of experiment [8]: Cytotoxicity against human SU-8686 cells after 48 hrs by cell titer-blue assay. The class given is functional, cell-based. Particulars: SU.86.86, 48 h.
Experiment [9] has as its system NALM-6. The experiment can be described thus: Induction of apoptosis in human NALM6 cells assessed as PARP cleavage at 3.125 to 25 uM after 24 hrs. The class given is functional, cell-based.
For experiment [10], the target named is Induced myeloid leukemia cell differentiation protein Mcl-1 (Homo sapiens, UniProt Q07820). The experiment in a line: Inhibition of recombinant His6-tagged MCL1 (171-326) expressed in Escherichia coli BL21 (DE3) and Flu-Bak peptide interaction by fluorescence polarization assay.
Induced myeloid leukemia cell differentiation protein Mcl-1, sequence (Q07820 whole entry): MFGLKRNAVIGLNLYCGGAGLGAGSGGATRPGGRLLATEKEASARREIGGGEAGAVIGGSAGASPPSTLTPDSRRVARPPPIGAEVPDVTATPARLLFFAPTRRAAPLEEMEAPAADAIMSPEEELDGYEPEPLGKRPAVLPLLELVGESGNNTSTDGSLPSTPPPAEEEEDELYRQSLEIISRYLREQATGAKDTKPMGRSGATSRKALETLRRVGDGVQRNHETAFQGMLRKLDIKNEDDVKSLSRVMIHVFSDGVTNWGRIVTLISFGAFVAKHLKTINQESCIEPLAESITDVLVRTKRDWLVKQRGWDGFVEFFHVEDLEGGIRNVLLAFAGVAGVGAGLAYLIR
For experiment [11], the system named is NALM-6. The experiment can be described thus: Induction of apoptosis in human NALM6 cells assessed as caspase 3/7 activation at 0.4 to 100 uM after 24 hrs by fluorescence assay. The class given is functional, cell-based.
For a further experiment, the target named is Bcl-2-like protein 1 (Homo sapiens, UniProt Q07817). The experiment in a line: Inhibition of recombinant His6-tagged Bcl-XL expressed in Escherichia coli BL21 (DE3) and Flu-Bak peptide interaction by fluorescence polarization assay.
Bcl-2-like protein 1, sequence (Q07817 whole entry): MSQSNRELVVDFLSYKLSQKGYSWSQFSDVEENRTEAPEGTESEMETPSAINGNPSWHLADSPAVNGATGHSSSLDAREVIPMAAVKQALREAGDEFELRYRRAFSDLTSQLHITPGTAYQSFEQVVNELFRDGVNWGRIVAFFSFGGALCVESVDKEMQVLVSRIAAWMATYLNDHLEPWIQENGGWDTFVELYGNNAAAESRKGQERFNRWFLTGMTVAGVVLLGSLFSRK
For experiment [12], the system named is NALM-6. The experiment can be described thus: Induction of apoptosis in human NALM6 cells assessed as PARP cleavage at 50 uM after 24 hrs. The class given is functional, cell-based.
Experiment [13] relates to HL-60. The experiment can be described thus: Ratio of GI50 for human HL60/MX2 cells to GI50 for human HL60 cells. The class given is functional.
[14] abbreviates: Homo sapiens, REH, 48 h, read-out: IC50.
Where [15] appears, read: Homo sapiens, NALM-6, 48 h, read-out: IC50.

Molecule `CCOC(=O)CC1C(C(=O)OCC)=C(N)Oc2ccc(-c3cc(O)cc(O)c3)cc21` (centres undefined) had an IC50 with Jurkat of 18.3 µM.

As for `COc1cccc2c1C(=O)c1c(O)c3c(c(O)c1C2=O)C[C@@](O)(C(=O)CO)C[C@@H]3O[C@H]1C[C@H](N)[C@H](O)[C@H](C)O1` [DOXORUBICIN], the EC50 was found to be 3080 nM in experiment [1], 1510 nM in the experiment on HL-60 [2], 8050 nM in experiment [3] and 465 nM in the experiment on CCRF-CEM [4].

With `CC[C@@]1(O)C(=O)OCc2c1cc1n(c2=O)Cc2cc3ccccc3nc2-1` [CAMPTOTHECIN], the RatioGI50 with CCRF-CEM [5] is recorded as 1879. In experiment [1], growth was halved (GI50) at 43.2 nM.

In the experiment with Jurkat, `CCOC(=O)CC1C(C(=O)OCC)=C(N)Oc2ccc(-c3ccc(C(C)(C)C)cc3)cc21` (centres undefined) had a 50% inhibitory concentration (IC50) of 35.5 µM.

In the experiment on Jurkat, `CCOC(=O)CC1C(C(=O)OCC)=C(N)Oc2c(-c3ccccc3)cccc21` (centres undefined) came in with an IC50 of 49.8 µM.

In the experiment with Jurkat, `CCOC(=O)CC1C(C(=O)OCC)=C(N)Oc2ccc(-c3cc(O)cc(OC)c3)cc21` (centres undefined) showed an IC50 of 4.2 µM.

Consider `CCOC(=O)CC1C(C(=O)OCC)=C(NC(C)=O)Oc2ccc(-c3ccccc3)cc21` (centres undefined), for which the IC50 in the experiment with Jurkat is 67.7 µM.

On to `CCOC(=O)C1=C(N)Oc2ccc(-c3ccccc3)cc2C1CC(=O)N1CCNCC1` (centres undefined), for which the half-maximal inhibitory concentration (IC50) in the experiment on Jurkat stood at 53.7 µM.

In the case of `CN(C)CC[C@H](CSc1ccccc1)Nc1ccc(S(=O)(=O)NC(=O)c2ccc(N3CCN(Cc4ccccc4-c4ccc(Cl)cc4)CC3)cc2)cc1[N+](=O)[O-]` [ABT 737], the IC50 with HCT-116 was 4.06 µM; in the experiment on REH (reh) it was “Not Active”; in the experiment with Jurkat it was 1.38 µM; in the experiment on NCI-H460, 8.03 µM; with MCF7 it was 21.3 µM; with DU-145, 27.6 µM. Further, the IC50 is 8.68 µM in experiment [6], “Not Active” in the experiment with NALM-6 [7] (nalm-6) and 4.24 µM in [8].

For the molecule `CCOC(=O)C1=C(N)Oc2ccc(-c3ccccc3)cc2C1CC(=O)N1CCOCC1` (centres undefined), the IC50 in the experiment with Jurkat is greater than 100 µM.

In turn, `CCOC(=O)CC1C(C(=O)OCC)=C(N)Oc2ccc(-c3ccc4ccccc4c3)cc21` (centres undefined) gave an IC50 with Jurkat of 18.7 µM.

With `CCOC(=O)CC1C(C(=O)OCC)=C(N)Oc2ccc(-c3cc(OC)c(OC)c(OC)c3)cc21` (centres undefined), the IC50 with Jurkat turned out to be 13.6 µM.

Consider `CCOC(=O)CC1C(C(=O)OCC)=C(N)Oc2ccc(-c3cc(OC)cc(OC)c3)cc21` (centres undefined), for which the IC50 in the experiment on HCT-116 worked out at 8.83 µM; with REH (setting [14]), 4.16 µM; in the experiment on Jurkat, 1.2 µM; in the experiment on NCI-H460 it was 5.14 µM; with MCF7 it was 15.5 µM; in the experiment on DU-145, 11.5 µM. In addition, the IC50 was found to be 10.9 µM in experiment [6], 4.74 µM with NALM-6 [7] (setting [15]) and 7.03 µM in experiment [8]. In addition, the Activity result in the experiment with NALM-6 [9] and in the experiment on NALM-6 [11] was “Dose-dependent effect” in each case. The values for the Ki (in experiment [10]; at Bcl-2-like protein 1) were 42 mM and 1240 µM, respectively.

For `CCOC(=O)CC1C(C(=O)OCC)=C(N)Oc2ccc(Br)cc21` (centres undefined), the IC50 in the experiment on Jurkat worked out at 57.3 µM.

Molecule `CCOC(=O)C1=C(N)Oc2ccc(-c3ccccc3)cc2C1CC(=O)N(CC)CC` (centres undefined) had an IC50 with Jurkat of 49.6 µM.

As to `CCOC(=O)CC1C(C(=O)OCC)=C(N(C(C)=O)C(C)=O)Oc2ccc(-c3ccccc3)cc21` (centres undefined), the half-maximal inhibitory concentration (IC50) in the experiment on Jurkat is 70.6 µM.

`CCOC(=O)C1=C(N)Oc2ccc(-c3ccccc3)cc2C1CC(=O)N1CCCCC1` (centres undefined) came in with an IC50 with Jurkat of 58.5 µM.

With `Nc1nc2[nH]cnc2c(=S)[nH]1` [THIOGUANINE], the EC50 in experiment [1] was 942 nM; in the experiment on HL-60 [2], 3900 nM; in experiment [3], 3650 nM; in the experiment on CCRF-CEM [4], 870 nM.

As for `Nc1ccn([C@@H]2O[C@H](CO)[C@@H](O)[C@@H]2O)c(=O)n1` [CYTARABINE], the EC50 in experiment [1] stood at 22.8 nM; in the experiment on HL-60 [2], 657 nM; in [3] it was 261 nM; with CCRF-CEM [4] it was 5.61 nM.

Regarding `CC[C@]1(O)C[C@H]2CN(CCc3c([nH]c4ccccc34)[C@@](C(=O)OC)(c3cc4c(cc3OC)N(C=O)[C@H]3[C@@](O)(C(=O)OC)[C@H](OC(C)=O)[C@]5(CC)C=CCN6CC[C@]43[C@@H]65)C2)C1` [VINCRISTINE], the 50% effective concentration (EC50) in experiment [1] turned out to be 367 nM; in experiment [3] it was 60.9 nM; in the experiment on CCRF-CEM [4], 597 nM.

Molecule `CCOC(=O)CC1C(C#N)=C(N)Oc2ccc(-c3ccccc3)cc21` (centres undefined) yielded an IC50 in the experiment on Jurkat of 52.5 µM.

For `CCOC(=O)CC1C(C(=O)OCC)=C(N)Oc2ccc(-c3ccccc3)cc21` (centres undefined), the IC50 is 18.5 µM in the experiment on HCT-116; 20.2 µM in the experiment with REH (setting [14]); 15.5 µM in the experiment with NCI-H460; 18.9 µM in the experiment with MCF7; 14.7 µM with DU-145; 22.8 µM in experiment [6]. The IC50 with NALM-6 [7] (setting [15]) came to 44.2 µM; in [8] it was 18.7 µM. The result in the experiment on NALM-6 [12] was inactive. Moreover, the Activity result in the experiment on NALM-6 [11] was “Dose-dependent effect”. Moreover, the Ki on Bcl-2-like protein 1 turned out to be 344 µM.

As for `CCOC(=O)CC1C(C(=O)OCC)=C(N)Oc2cc(-c3ccccc3)ccc21` (centres undefined), 51.6 µM corresponded to half-maximal inhibition in the experiment on Jurkat (IC50).

For the molecule `CCOC(=O)CC1C(C(=O)OCC)=C(N)Oc2ccc(-c3cccc4ccccc34)cc21` (centres undefined), the IC50 in the experiment with Jurkat was determined as 5.83 µM.

Regarding `CCOC(=O)CC1C(C(=O)OCC)=C(N)Oc2cccc(-c3ccccc3)c21` (centres undefined), in the experiment with Jurkat, it took 44.3 µM to reach half-maximal inhibition (IC50).

`CCCc1ccc2c(c1)C(CC(=O)OCC)C(C(=O)OCC)=C(N)O2` (centres undefined): the IC50 with Jurkat was 57.3 µM.

Molecule `CCOC(=O)CC1C(C(=O)OCC)=C(N)Oc2ccccc21` (centres undefined) came in with an IC50 in the experiment with Jurkat of 91.4 µM.

Turning to `Cc1cc2c(C(C)C)c(O)c(O)c(C=O)c2c(O)c1-c1c(C)cc2c(C(C)C)c(O)c(O)c(C=O)c2c1O` [GOSSYPOL], in [10], the Ki was determined as 0.00654 mM.

For the molecule `O=C1c2c(O)ccc(O)c2C(=O)c2c(NCCNCCO)ccc(NCCNCCO)c21` [MITOXANTRONE], the RatioGI50 in the experiment on HL-60 [13] stood at 23. Besides, the GI50 amounted to 0.192 µg/mL (≈ 0.432 µM) in the experiment on HL-60 [2] and 4.42 µg/mL (≈ 9.94 µM) in [3].

In the experiment on Jurkat, `CC(C)OC(=O)CC1C(C(=O)OC(C)C)=C(N)Oc2ccc(-c3ccccc3)cc21` (centres undefined) displayed an IC50 of 38.7 µM.
